Source: patent US7208517B1, “Endothelin antagonists” (Abbott Labortories, priority 1994, dated 2007)

molecular target: T1, human ETB receptor (Homo sapiens, UniProt P24530); assay: ETA/ETB selectivity: (125I)ET-3 competition binding, CHO cells transfected with human ETB receptor (hET-B); conditions: CHO cells transfected with human ETB receptor; 0.1 nM (125I)ET-3; read-out: hET-B IC50
T1 construct: expressed in transfected cells; host or cells: CHO cells, permanently transfected
T1 sequence (P24530 27-442): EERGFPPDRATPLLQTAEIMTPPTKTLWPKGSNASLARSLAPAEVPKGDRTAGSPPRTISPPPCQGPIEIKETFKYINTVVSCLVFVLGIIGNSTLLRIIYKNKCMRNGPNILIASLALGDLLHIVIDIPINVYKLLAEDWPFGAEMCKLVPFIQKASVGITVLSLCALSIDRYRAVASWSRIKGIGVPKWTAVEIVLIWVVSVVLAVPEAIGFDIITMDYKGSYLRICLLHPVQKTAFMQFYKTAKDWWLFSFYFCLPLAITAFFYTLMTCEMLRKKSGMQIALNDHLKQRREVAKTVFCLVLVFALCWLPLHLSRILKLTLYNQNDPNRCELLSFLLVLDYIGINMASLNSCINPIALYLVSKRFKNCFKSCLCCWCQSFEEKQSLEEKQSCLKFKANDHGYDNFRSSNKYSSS
Description: MMQ cells, porcine cerebellar tissues (known to contain ETB receptors) and chinese hamster ovary cells (CHO) permanently transfected with the human ETA or ETB receptor were homogenized in 25 ml of 10 mM Hepes (pH 7.4) containing 0.25 M sucrose and a protease inhibitor [50 mM EDTA, 0.1 mM PMSF, 5 μg/ml Pepstatin A, and 0.025% Bacitracin] using a micro ultrasonic cell disrupter. The mixture was centrifuged at 1000×g for 10 min. The supernatant was collected and centrifuged at 60,000×g for 60 min. The precipitate was resuspended in 20 mM Tris, pH 7.4 containing protease inhibitor and centrifuged again. The final membrane pellet was resuspended in 20 mM Tris, pH 7.4 containing protease inhibitors and stored at −80° C. until used. Protein content was determined by the Bio-Rad dye-binding protein assay.
Binding assays were performed in 96-well microtiter plates pretreated with 0.1% BSA. Membranes prepared from cells were diluted 100 fold in Buffer B (20 mM Tris, 100 mM NaCl, 10 mM MgCl2, pH 7.4, with 0.2% BSA, 0.1 mM PMSF, 5 μg/mL Pepstatin A, 0.025% bacitracin, and 50 mM EDTA) to a final concentration of 0.2 mg/mL of protein. In competition binding studies, membranes (0.02 mg) were incubated with 0.1 nM of (^125I)ET-1 (for ETA assay in MMQ or CHO cells transfected with human ETA receptor) or (^125I)ET-3 (for ETB assay in porcine cerebellum or CHO cells transfected with human ETB receptor) in Buffer B (final volume: 0.2 mL) in the presence of increasing concentrations of the test compound for 3 hours at 25° C. After incubation, unbound ligands were separated from bound ligands by a vacuum filtration method using glass-fiber filter strips in PHD cell harvesters (Cambridge Technology, Inc., MA), washing the filter strips three times with saline (1 mL). Nonspecific binding was determined in the presence of 1 μM ET-1. IC50 values are calculated using an average of at least two separate determinations.

Row | IC50 | SMILES
1 | 52 µM | CCCCN(CCCC)C(=O)CN1CC(c2ccc3c(c2)OCO3)C(C(=O)O)C1CC(C)(C)CCC (stereo not drawn) [compound 503]
2 | > 100 µM | CCCCN(CCCC)C(=O)CN1CC(c2ccc3c(c2)OCO3)C(C(=O)O)C1CCC1OCCO1 (stereo not drawn) [compound 504]
3 | 68 µM | CCCCN(CCCC)C(=O)CN1CC(c2ccc3c(c2)OCO3)C(C(=O)O)C1CCC1CCCCO1 (stereo not drawn) [compound 505]
4 | 61 µM | CCCCN(CCCC)C(=O)CN1CC(c2ccc3c(c2)OCO3)C(C(=O)O)C1CC(C)(C)C=C(C)C (stereo not drawn) [compound 506]
5 | > 100 µM | CCCCN(CCCC)C(=O)CN1CC(c2ccc3c(c2)OCO3)C(C(=O)O)C1CC(C)(C)C1OCCO1 (stereo not drawn) [compound 507]
6 | 23 µM | CCCCN(CCCC)C(=O)CN1CC(c2cc(OC)c3c(c2)OCO3)C(C(=O)O)C1CCC1OCCO1 (stereo not drawn) [compound 509]
7 | 11 µM | CCCCN(CCCC)C(=O)CN1CC(c2ccc3c(c2)OCO3)C(C(=O)O)C1COc1ccccc1OC (stereo not drawn) [compound 510]
8 | 14 µM | CCCC(CCC)N(C(=O)CN1CC(c2cc(OC)c3c(c2)OCO3)C(C(=O)O)C1CCC1OCCO1)c1ccc(F)c(C)c1 (stereo not drawn) [compound 513]
9 | > 100 µM | CCCCN(CCCC)C(=O)CN1C[C@H](c2ccc3c(c2)CCO3)[C@@H](C(=O)O)[C@@H]1CC(C)(C)CCC [compound 515]
10 | 37 µM | CCCCN(CCCC)C(=O)CN1CC(c2cc(OC)c3c(c2)OCO3)C(C(=O)O)C1CC(C)(C)C1OCCO1 (stereo not drawn) [compound 516]
11 | 12 µM | CCCCN(CCCC)C(=O)CN1CC(c2ccc3c(c2)OCO3)C(C(=O)O)C1CCc1ccccc1OC (stereo not drawn) [compound 517]
12 | 0.29 µM | CCCCN(CCCO)C(=O)CN1CC(c2ccc3c(c2)OCO3)C(C(=O)O)C1c1ccc(OC)cc1 (stereo not drawn) [compound 523]
13 | 0.89 µM | CCCON(CCC)C(=O)CN1CC(c2ccc3c(c2)OCO3)C(C(=O)O)C1c1ccc(OC)cc1 (stereo not drawn) [compound 524]
14 | 0.87 µM | CCCCN(C(=O)CN1CC(c2ccc3c(c2)OCO3)C(C(=O)O)C1c1ccc(OC)cc1)c1cccnc1 (stereo not drawn) [compound 531]
15 | 1.9 µM | CCCCN(CCCC)C(=O)CN1C[C@H](c2ccc3c(c2)OCO3)[C@@H](C(=O)O)[C@@H]1CC(C)(C)CCC [compound 537]

system: male subjects with hormone refractory prostate cancer; assay: Interleukin-6 levels in serum of treated subjects; assay type: in vivo, human; conditions: subjects treated versus placebo
Description: (§1) Studies were performed on male subjects with asymptomatic hormone refractory prostate cancer with rising PSA levels and on male subjects with symptomatic hormone refractory prostate cancer with rising PSA levels and pain. Subjects in the phase II studies had castrate levels of testosterone, either due to pharmacologic intervention, via leuprolide (Lupron®) or goserelin (Zoladex®), or via surgical castration. Subjects received ABT-627 or placebo. The following tests were conducted:
(§2) ABT-627 was formulated in 2.5 and 10 mg doses. An oral liquid formulation of ABT-627 was also prepared as follows: 1 mg/ml ABT-627, 50% glycerin, 14% alcohol, and water. Matching placebos were also provided.
The effect of ABT-627 adminstration on Interleukin-6 levels in human serum samples was determined at Quintiles Laboratories using a sandwich immunoassay. Human serum samples and standards were incubated in microtiter plate wells coated with a monoclonal anti-IL-6 antibody, in the presence of a second monoclonal anti IL-6 antibody, linked to acetylcholinesterase. After incubation, the wells were washed, and the bound enzymatic activity was measured using a chromogenic substrate. The intensity of the color was proportional to the concentration of IL-6 in the sample or standard.

Row | SMILES | average change in baseline for Interleukin-6 (AUC, FIG. 1)
16 | CCCCCN(CCCC)C(=O)CN1C[C@H](c2ccc3c(c2)OCO3)[C@@H](C(=O)O)[C@@H]1c1ccc(OC)cc1 [ABT-627] | the average change in baseline for Interleukin-6 was lower

system: male subjects with hormone refractory prostate cancer; assay: Bone scan (bone scan index, skeletal involvement) of treated subjects; assay type: in vivo, human; conditions: versus placebo
Description: as §1, §2
Bone scans were performed with an NDA approved, Tc-99m phosphonate type radiopharmaceutical. This technique uses whole body format (skull to feet) so that anterior and posterior images are presented when using a 510 K-approved gamma camera. […] Each site was evaluated against a confidence score of 1 to 5, where 1 is negative, 2 is probably negative, 3 is equivocal, 4 is probably positive, and 5 is definitely positive. […] In addition, in a blinded study, a reference nuclear medicine physician interpreted the bone scans quantitatively as follows: the percent of involved bone was estimated for each individual bone, and the individual bone involvement was summed to calculate a global percent bone scan index (BSI). […]

Row | SMILES | proportion of total skeletal involvement by bone scan (FIG. 6)
17 | CCCCCN(CCCC)C(=O)CN1C[C@H](c2ccc3c(c2)OCO3)[C@@H](C(=O)O)[C@@H]1c1ccc(OC)cc1 [ABT-627] | a decrease in the proportion of total skeketal involvement

system: male subjects with hormone refractory prostate cancer; assay: Crosslinked N-telopeptide levels of treated subjects; assay type: in vivo, human; conditions: subjects treated versus placebo
Description: as §1, §2
Markers of osteoblastic activity were assessed using […]. Bone markers include bone alkaline phosphatase (BAP), deoxypridinoline, and N-telopeptide of Type I collagen. Blood samples were collected prior to dosing on Day 1, Day 42, Day 84, Day 168, and every 28 days after Day 168, with a final collection on the last day of the study.
Cross-linked N-telopeptide levels were determined using the DiaSorin (Stillwater, MN) assay for the quantitative determination of carboxyterminal cross-linked telopeptide of type I collagen (ICTP) in human serum by equilibrium radioimmunoassay (RIA). […] The bound tracer in the pellet was counted with a gamma counter. […]

Row | SMILES | Crosslinked N-telopeptide levels (AUC, FIG. 4)
18 | CCCCCN(CCCC)C(=O)CN1C[C@H](c2ccc3c(c2)OCO3)[C@@H](C(=O)O)[C@@H]1c1ccc(OC)cc1 [ABT-627] | Crosslinked N-telopeptide levels decreased
